The Ki is a dissociation constant, usually derived from enzyme kinetics or from competition with a known ligand. As usually defined, the solubility is how much of the substance goes into solution per volume. A low value points to a poorly soluble substance. What is called inhibition is the share of the control response that was lost under treatment. A lower inhibition goes with a weak effect.

Series [1] deals with Trypsin (Homo sapiens, UniProt P07477+P07478+P35030). Briefly: Inhibition of human trypsin. Format: protein assay.
Series [2] can be described thus: Solubility at pH 7.4. The conditions noted are these: buffer. Format: physicochemical.
The target in series [3] is Tryptase beta-1 (Homo sapiens, UniProt Q15661). The experiment in a line: Inhibition of human beta tryptase.
Series [4] has as its target T1, hERG (KCNH2) (Homo sapiens, UniProt Q12809). The experiment in a line: Inhibition of hERG at 1 uM. Format: toxicity. (The hERG channel carries a current that helps repolarise heart muscle cells.)
The target in series [5] is T1, hERG (KCNH2). Briefly: Inhibition of hERG at 10 uM. Type of series: toxicity.
Series [6] can be described thus: Stability in human liver microsome after 1 hr. Format: ADME. The conditions noted are these: liver microsomes, read-out: Stability.
Series [7] concerns the target T2, Coagulation factor VII (Homo sapiens, UniProt P08709).
T2 sequence (P08709 whole entry): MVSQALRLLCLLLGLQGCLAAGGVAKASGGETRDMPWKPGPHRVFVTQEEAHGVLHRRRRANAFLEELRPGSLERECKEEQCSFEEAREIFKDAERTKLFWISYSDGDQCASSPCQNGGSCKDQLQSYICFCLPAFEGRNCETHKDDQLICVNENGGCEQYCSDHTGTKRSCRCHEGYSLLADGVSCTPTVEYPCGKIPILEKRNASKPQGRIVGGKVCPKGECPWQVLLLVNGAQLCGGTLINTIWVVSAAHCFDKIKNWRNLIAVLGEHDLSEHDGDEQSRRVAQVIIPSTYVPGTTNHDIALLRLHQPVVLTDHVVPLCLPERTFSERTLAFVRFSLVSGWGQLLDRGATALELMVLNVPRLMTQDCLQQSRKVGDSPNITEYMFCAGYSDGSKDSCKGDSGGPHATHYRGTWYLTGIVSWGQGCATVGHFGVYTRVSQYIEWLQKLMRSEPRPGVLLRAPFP
The experiment in a line: Inhibition of F7a.

The target of series [8] is Prothrombin (Homo sapiens, UniProt P00734). The experiment in a line: Inhibition of thrombin.
Series [9] deals with Coagulation factor X (Homo sapiens, UniProt P00742). Briefly: Inhibition of F10a.

In brackets after ≈: the same amount, converted by molar mass.

T1 sequence (Q12809 whole entry): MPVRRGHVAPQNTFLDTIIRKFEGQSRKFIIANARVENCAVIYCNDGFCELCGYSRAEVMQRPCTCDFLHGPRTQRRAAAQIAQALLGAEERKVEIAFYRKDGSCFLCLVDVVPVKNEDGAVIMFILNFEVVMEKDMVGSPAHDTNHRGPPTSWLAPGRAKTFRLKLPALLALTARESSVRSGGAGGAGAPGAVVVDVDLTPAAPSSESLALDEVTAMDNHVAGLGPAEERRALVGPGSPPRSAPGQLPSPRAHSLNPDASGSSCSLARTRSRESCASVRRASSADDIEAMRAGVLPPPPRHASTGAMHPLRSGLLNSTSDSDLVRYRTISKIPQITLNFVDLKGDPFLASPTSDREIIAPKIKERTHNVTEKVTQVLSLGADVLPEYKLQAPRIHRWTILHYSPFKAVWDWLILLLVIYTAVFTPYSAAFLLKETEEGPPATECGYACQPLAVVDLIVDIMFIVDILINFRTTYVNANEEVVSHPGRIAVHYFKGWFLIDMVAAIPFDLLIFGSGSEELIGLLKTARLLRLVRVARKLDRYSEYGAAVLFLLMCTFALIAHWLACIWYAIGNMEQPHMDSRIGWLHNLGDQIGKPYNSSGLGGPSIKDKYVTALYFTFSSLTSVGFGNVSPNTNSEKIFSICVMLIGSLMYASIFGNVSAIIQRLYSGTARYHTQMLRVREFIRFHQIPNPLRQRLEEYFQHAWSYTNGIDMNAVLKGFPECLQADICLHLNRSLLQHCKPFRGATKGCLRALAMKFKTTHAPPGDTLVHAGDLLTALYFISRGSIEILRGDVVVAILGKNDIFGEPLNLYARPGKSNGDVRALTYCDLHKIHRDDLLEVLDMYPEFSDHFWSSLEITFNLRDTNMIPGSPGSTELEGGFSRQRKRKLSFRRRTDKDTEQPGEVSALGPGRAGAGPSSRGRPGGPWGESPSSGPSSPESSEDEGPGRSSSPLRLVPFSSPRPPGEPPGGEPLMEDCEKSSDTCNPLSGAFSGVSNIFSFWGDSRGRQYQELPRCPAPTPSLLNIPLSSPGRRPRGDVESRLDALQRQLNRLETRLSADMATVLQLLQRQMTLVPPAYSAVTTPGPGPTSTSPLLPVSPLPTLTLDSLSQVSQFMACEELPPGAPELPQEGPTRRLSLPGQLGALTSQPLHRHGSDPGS
Tryptase beta-1, sequence (Q15661 whole entry): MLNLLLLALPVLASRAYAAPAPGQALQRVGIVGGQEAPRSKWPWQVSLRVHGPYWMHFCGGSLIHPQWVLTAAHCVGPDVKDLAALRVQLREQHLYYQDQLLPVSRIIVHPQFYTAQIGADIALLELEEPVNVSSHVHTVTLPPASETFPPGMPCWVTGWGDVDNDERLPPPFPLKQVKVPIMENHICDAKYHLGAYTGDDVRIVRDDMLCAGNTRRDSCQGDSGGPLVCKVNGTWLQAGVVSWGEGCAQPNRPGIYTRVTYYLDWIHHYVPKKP
Coagulation factor X, sequence (P00742 41-179 limits assumed): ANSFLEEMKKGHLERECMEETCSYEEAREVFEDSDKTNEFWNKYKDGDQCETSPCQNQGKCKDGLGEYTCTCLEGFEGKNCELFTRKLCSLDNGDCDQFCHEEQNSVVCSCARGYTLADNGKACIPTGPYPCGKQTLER
Coagulation factor X, sequence (P00742 235-488 limits assumed): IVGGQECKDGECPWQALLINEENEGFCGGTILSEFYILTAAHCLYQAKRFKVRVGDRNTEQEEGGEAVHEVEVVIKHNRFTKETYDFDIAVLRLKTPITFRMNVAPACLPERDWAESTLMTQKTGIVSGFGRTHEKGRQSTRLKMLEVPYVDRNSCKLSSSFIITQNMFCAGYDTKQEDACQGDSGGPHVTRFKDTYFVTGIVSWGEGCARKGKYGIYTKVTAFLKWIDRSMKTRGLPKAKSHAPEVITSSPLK

Consider `NCCCC[C@H](NC(=O)OCc1ccccc1)C(=O)c1noc(Cc2ccc(C(=O)NCCc3cc(F)cc(F)c3)cc2)n1`, for which the Ki in [1] turned out to be 0.018 µM; in series [3], 0.0035 µM. This compound returned a solubility in series [2] of 333 µM (≈ 202 µg/mL).

With `CCOC(=O)N[C@@H](CCCCN)C(=O)c1noc(Cc2ccc(C(=O)NCCc3cccc(Cl)c3)cc2)n1`, the Ki worked out at 0.18 µM in [1] and 0.0019 µM in series [3]. The same compound came in with a solubility in series [2] of 471 µM (≈ 255 µg/mL).

Consider `NCCCC[C@H](NC(=O)OCc1ccccc1)C(=O)c1noc(CN2CCN(CCCc3ccccc3)CC2)n1`, for which, in series [2], the concentration in solution (solubility) was 329 µM (≈ 181 µg/mL). In series [3], this compound came in with a Ki of 0.011 µM.

On to `CC(C)CCNC(=O)c1ccc(Cc2nc(C(=O)[C@H](CCCCN)NC(=O)OCc3ccccc3)no2)cc1`, for which the figures for the inhibition constant (Ki) in series [1] and in [3] were 0.029 µM and 0.0099 µM, respectively. In addition, the inhibition at 1 µM in series [4] amounted to 0%. The solubility in series [2] worked out at 364 µM (≈ 195 µg/mL).

Regarding `NCCCC[C@H](NC(=O)c1cc(F)cc(F)c1)C(=O)c1noc(Cc2ccc(C(=O)NCCc3cccc(Cl)c3)cc2)n1`, the Ki in [1] was 0.41 µM; in series [3], 0.0015 µM. In series [2], this compound gave a solubility of 313 µM (≈ 191 µg/mL).

For the compound `Cc1ccc(CNC(=O)c2ccc(Cc3nc(C(=O)[C@H](CCCCN)NC(=O)OCc4ccccc4)no3)cc2)cc1C`, the Ki in series [1] worked out at 0.034 µM; in [3], 0.039 µM. Besides, in series [2], the solubility stood at 245 µM (≈ 143 µg/mL).

For `NCCCC[C@H](NC(=O)OCc1ccccc1)C(=O)c1noc(Cc2ccc(C(=O)NCc3ccc4ccccc4c3)cc2)n1`, the Ki in [1] was 0.015 µM; in [3], 0.011 µM. Further, the solubility in series [2] amounted to 100 µM (≈ 60.6 µg/mL).

Consider `NCCCC[C@H](NC(=O)c1cccc(F)c1)C(=O)c1noc(Cc2ccc(C(=O)NCCc3cccc(Cl)c3)cc2)n1`, for which the values for the Ki in series [1] and in series [3] were 0.28 µM and 0.0017 µM, respectively. The compound further registered a solubility in series [2] of 422 µM (≈ 250 µg/mL).

With `NCCCC[C@H](NC(=O)OCc1ccccc1)C(=O)c1noc(CN2CCN(C(=O)CCc3ccccc3)CC2)n1`, the Ki in [1] was found to be 0.033 µM; in [3] it was 0.23 µM.

Turning to `COc1ccc(Cc2nc(C(=O)[C@H](CCCCN)NC(=O)OCc3ccccc3)no2)cc1`, the Ki in [1] was 0.022 µM; in series [3], 0.77 µM. For the same compound, in series [2], the solubility amounted to 348 µM (≈ 157 µg/mL).

Turning to `NCCCC[C@H](NC(=O)OCc1ccccc1)C(=O)c1noc(CN2CCN(C(=O)CCCc3ccccc3)CC2)n1`, the values for the Ki in series [1] and in series [3] were 0.022 µM and 0.034 µM, respectively. The compound also registered an inhibition at 10 µM in series [5] of 2.3%. In addition, the remaining at 1 h in series [6] was 2%. In [2], this compound had a solubility of more than 500 µM.

Consider `NCCCC[C@H](NC(=O)OCc1ccccc1)C(=O)c1noc(Cc2ccc(C(=O)NCc3cccc4ccccc34)cc2)n1`, for which the figures for the Ki in [1] and in series [3] were 0.026 µM and 0.013 µM, respectively. The same compound had a solubility in series [2] of 77.2 µM (≈ 46.8 µg/mL).

For the compound `NCCCC[C@H](NC(=O)OCc1ccccc1)C(=O)c1noc(Cc2ccc(C(=O)NCCc3ccccc3)cc2)n1`, the Ki in series [1] was determined as 0.02 µM; in series [3], 0.0032 µM. The solubility in series [2] was determined as 440 µM (≈ 251 µg/mL).

As for `NCCCC[C@H](NC(=O)OCc1ccccc1)C(=O)c1noc(Cc2ccc(C(=O)NC3Cc4ccccc4C3)cc2)n1`, the Ki was 0.021 µM in [1]; 140 µM in series [7]; 48 µM in [8]; 100 µM in series [9]; 0.0037 µM in series [3]. Besides, the solubility in [2] stood at 206 µM (≈ 120 µg/mL).

For the compound `NCCCC[C@H](NC(=O)c1ccc(F)cc1)C(=O)c1noc(Cc2ccc(C(=O)NCCc3cccc(Cl)c3)cc2)n1`, the Ki stood at 0.24 µM in series [1] and 0.0018 µM in series [3]. Also, the solubility in series [2] was 390 µM (≈ 231 µg/mL).

`NCCCC[C@H](NC(=O)OCc1ccccc1)C(=O)c1noc(Cc2ccc(C(=O)NCCc3cccs3)cc2)n1`: the Ki in [1] worked out at 0.013 µM; in series [3] it was 0.0024 µM. The compound also had an inhibition at 10 µM in [5] of 7.2%. In series [2], this compound came in with a solubility of 484 µM (≈ 279 µg/mL).

In the case of `CC(C)(C)C(=O)N[C@@H](CCCCN)C(=O)c1noc(Cc2ccc(C(=O)NCCc3cccc(Cl)c3)cc2)n1`, the Ki in series [1] came out at 0.47 µM; in [3], 0.002 µM. This compound also showed a solubility in [2] of 30 µM (≈ 16.6 µg/mL).

On to `NCCCC[C@H](NC(=O)OCc1ccccc1)C(=O)c1noc(Cc2ccc(C(=O)NCCCCc3ccccc3)cc2)n1`, for which the Ki in [1] was 0.014 µM; in series [3], 0.06 µM. For the same compound, in series [2], the concentration in solution (solubility) came to 188 µM (≈ 112 µg/mL).

Take `NCCCC[C@H](NC(=O)OCc1ccccc1)C(=O)c1noc(Cc2ccc(C(=O)N3CCN(Cc4ccccc4F)CC3)cc2)n1`: the Ki in series [1] was determined as 0.0037 µM; in [3], 0.14 µM. The concentration in solution in [2] (solubility) was 472 µM (≈ 303 µg/mL).

Consider `NCCCC[C@H](NC(=O)OCc1ccccc1)C(=O)c1noc(Cc2ccc(C(=O)NCCOc3ccc(F)cc3)cc2)n1`, for which the Ki worked out at 0.011 µM in series [1] and 0.0029 µM in series [3]. For the same compound, in [2], the solubility is 299 µM (≈ 180 µg/mL).

Turning to `CCOC(=O)N[C@@H](CCCCN)C(=O)c1noc(Cc2ccc(C(=O)NC3Cc4ccccc4C3)cc2)n1`, the Ki in series [1] was 0.17 µM; in [7], more than 150 µM; in series [8], 60 µM; in [9] it was 140 µM. Also, the remaining at 1 h in series [6] was found to be 64%.

`NCCCC[C@H](NC(=O)OCc1ccccc1)C(=O)c1noc(Cc2ccc(C(=O)NC/C=C/c3ccccc3)cc2)n1`: the Ki in series [1] was found to be 0.018 µM; in series [3], 0.0036 µM. The compound further yielded a solubility in series [2] of 226 µM (≈ 131 µg/mL).

Consider `NCCCC[C@H](NC(=O)OCc1ccccc1)C(=O)c1noc(Cc2ccc(C(=O)NCCc3cccc(C(F)(F)F)c3)cc2)n1`, for which the Ki in series [1] turned out to be 0.03 µM; in [3] it was 0.0082 µM. This compound returned a solubility in series [2] of 284 µM (≈ 181 µg/mL).

On to `NCCCC[C@H](NC(=O)c1ccc(Cl)cc1)C(=O)c1noc(Cc2ccc(C(=O)NCCc3cccc(Cl)c3)cc2)n1`, for which the figures for the Ki in [1] and in series [3] were 0.33 µM and 0.0019 µM, respectively.

For `NCCCC[C@H](NC(=O)OCc1ccccc1)C(=O)c1noc(Cc2ccc(C(=O)NCCc3cccc(Cl)c3)cc2)n1`, the Ki in series [1] amounted to 0.023 µM; in series [3], 0.0018 µM. Besides, in series [2], the solubility stood at 109 µM (≈ 65.8 µg/mL).

On to `NCCCC[C@H](NC(=O)OCc1ccccc1)C(=O)c1noc(CN2CCN(CCCCc3ccccc3)CC2)n1`, for which the Ki in series [1] came out at 0.012 µM; in series [3], 0.0058 µM. The remaining at 1 h in series [6] was found to be 22%. Also, the concentration in solution in [2] (solubility) came to 466 µM (≈ 262 µg/mL).

As to `NCCCC[C@H](NC(=O)OCc1ccccc1)C(=O)c1noc(CN2CCN(C(=O)OCc3ccccc3)CC2)n1`, the Ki in series [1] was found to be 0.042 µM; in series [3] it was 0.47 µM.

On to `NCCCC[C@H](NC(=O)OCc1ccccc1)C(=O)c1noc(Cc2ccc(C(=O)NCCc3ccc(Cl)c(Cl)c3)cc2)n1`, for which the Ki in [1] turned out to be 0.031 µM; in series [3], 0.016 µM.

For the compound `NCCCC[C@H](NC(=O)c1ccc2c(c1)OCO2)C(=O)c1noc(Cc2ccc(C(=O)NCCc3cccc(Cl)c3)cc2)n1`, the results for the Ki in series [1] and in [3] were 0.33 µM and 0.0021 µM, respectively. Moreover, the concentration in solution in [2] (solubility) was 337 µM (≈ 208 µg/mL).

In the case of `NCCCC[C@H](NC(=O)OCc1ccccc1)C(=O)c1noc(Cc2ccc(C(=O)NCCCc3ccccc3)cc2)n1`, the Ki in series [1] worked out at 0.019 µM; in series [3] it was 0.003 µM. This compound also returned a solubility in series [2] of 370 µM (≈ 216 µg/mL).

In the case of `NCCCC[C@H](NC(=O)c1ccc(F)c(F)c1)C(=O)c1noc(Cc2ccc(C(=O)NCCc3cccc(Cl)c3)cc2)n1`, the Ki stood at 0.44 µM in [1] and 0.0017 µM in [3]. This compound yielded a solubility in series [2] of 349 µM (≈ 213 µg/mL).

Regarding `NCCCC[C@H](NC(=O)OCc1ccccc1)C(=O)c1noc(Cc2ccc(C(=O)NCc3ccccc3)cc2)n1`, the values for the Ki in [1] and in [3] were 0.023 µM and 0.037 µM, respectively. The solubility in [2] was found to be 459 µM (≈ 255 µg/mL).

`NCCCC[C@H](NC(=O)OCc1ccccc1)C(=O)c1noc(Cc2ccc(C(=O)NCCc3ccc(C(F)(F)F)cc3)cc2)n1`: the Ki in [1] came to 0.027 µM; in series [3], 0.22 µM. In addition, the solubility in series [2] came to 227 µM (≈ 145 µg/mL).

On to `NCCCC[C@H](NC(=O)OCc1ccccc1)C(=O)c1noc(Cc2ccc(OCCc3ccccc3)cc2)n1`, for which the inhibition at 1 µM in series [4] is 40%. The compound further showed a solubility in [2] of 23 µM (≈ 12.5 µg/mL).

Values taken from ChEMBL document CHEMBL1146045, “Design of novel, potent, and selective human beta-tryptase inhibitors based on alpha-keto-[1,2,4]-oxadiazoles” (Bioorg Med Chem Lett, 2006).
